Usually TGI stands for the concentration at which net growth stops. Low readings indicate greater sensitivity of the cells, high ones lower sensitivity of the cells. For orientation: GI50 means the concentration giving 50% growth inhibition.

This note sets out measurements from PubChem BioAssay (NCI).

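Growth conditions: 96-well plates. Treatment: test compound, 48 hours, 5 concentrations. Analysis: linear interpolation between bracketing concentrations; unreached endpoints set to highest concentration. GI50 marks 50% less growth. TGI marks complete inhibition of growth.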 A value given as a limit tells only on which side of the number the result lay.

Among the test systems are 786-0 renal; MDA-N; ACHN renal; OVCAR-3 ovarian; A549 NSCLC; HCT-15 colon; COLO 205 colon; CCRF-CEM leukemia; SNB-75 CNS; RPMI-8226 leukemia; BT-549 breast.
Common to all, as to assay: DTP human tumour cell line panel, 48 h

`CC(=O)OCC1OC(n2c(-c3ccccc3)c(C(C)=O)c(-c3cccc4ccccc34)c(C#N)c2=S)C(OC(C)=O)C(OC(C)=O)C1OC(C)=O` (stereo unspecified): the TGI with 786-0 renal, in the assay on MDA-N, in the assay on ACHN renal, in the assay with OVCAR-3 ovarian, in the assay with A549 NSCLC and with HCT-15 colon was > 100 µM throughout. Moreover, the total growth inhibition concentration (TGI) in the assay with COLO 205 colon, in the assay with CCRF-CEM leukemia and with SNB-75 CNS was > 100 µM throughout. Further, the GI50 in the assay with SNB-75 CNS is 0.022 µM.

As for `CC(C)NC(=O)OCc1c(CO)c2c(n1C)-c1ccccc1CC2`, the TGI in the assay on RPMI-8226 leukemia was 49.4 µM; with OVCAR-3 ovarian, 66.9 µM; in the assay with A549 NSCLC, > 100 µM; in the assay on HCT-15 colon, 54.6 µM; in the assay on COLO 205 colon it was 44.7 µM; in the assay with CCRF-CEM leukemia, 45.2 µM. The TGI with SNB-75 CNS is > 100 µM.

With `N#CC(Cc1ccccc1)N(CCC1=CCCCC1)Cc1ccccc1` (stereo unspecified), the total growth inhibition concentration (TGI) was > 100 µM in the assay with 786-0 renal; > 100 µM in the assay on MDA-N; > 100 µM with ACHN renal; > 100 µM in the assay on BT-549 breast; 63.5 µM in the assay on RPMI-8226 leukemia; > 100 µM with OVCAR-3 ovarian. The TGI with A549 NSCLC was > 100 µM; with HCT-15 colon it was > 100 µM; with COLO 205 colon, 66.4 µM; in the assay with SNB-75 CNS it was > 100 µM.

On to `COC(=O)c1ccc(N=NN(C)COc2ccc(Br)cc2)cc1`, for which the total growth inhibition concentration (TGI) with RPMI-8226 leukemia is > 79.8 µM; in the assay on OVCAR-3 ovarian it was > 100 µM; with A549 NSCLC it was > 100 µM; in the assay with HCT-15 colon, > 100 µM; with COLO 205 colon it was > 100 µM; with CCRF-CEM leukemia, > 100 µM. Besides, in the assay on SNB-75 CNS, the TGI was > 100 µM.

`Cc1cc(/C=C/c2cc[n+](C)c3ccccc23)c(O)c2ncccc12`: the TGI stood at 14.3 µM with 786-0 renal; 16.4 µM in the assay with ACHN renal; 6.41 µM in the assay with RPMI-8226 leukemia; 3.97 µM in the assay on OVCAR-3 ovarian; 19.1 µM in the assay with A549 NSCLC; 49.8 µM in the assay with HCT-15 colon. In addition, the figures for the concentration for total growth inhibition (TGI) in the assay on COLO 205 colon, in the assay with CCRF-CEM leukemia and in the assay with SNB-75 CNS were 23.3 µM, > 37.7 µM and 24 µM, respectively.

Take `CCOc1ccc(N/C(=C(/C(Cl)=C(/Cl)N2CCCCC2)[N+](=O)[O-])n2nnc3ccccc32)cc1`: the TGI with 786-0 renal was 39.8 µM; in the assay with MDA-N, 52.4 µM; with ACHN renal, 36 µM; in the assay on BT-549 breast, 34.6 µM; with RPMI-8226 leukemia, > 100 µM; in the assay with OVCAR-3 ovarian it was 33.7 µM. Moreover, the total growth inhibition concentration (TGI) was determined as 62.9 µM with A549 NSCLC, 29 µM in the assay with HCT-15 colon, 42.5 µM with COLO 205 colon and 50.6 µM in the assay on SNB-75 CNS.

For the compound `CC(C)NC(=O)N(Nc1ccccc1)C(C)(C)C`, the TGI in the assay on 786-0 renal, in the assay with MDA-N, with ACHN renal, in the assay with BT-549 breast, with OVCAR-3 ovarian and in the assay with A549 NSCLC was > 100 µM each time. Further, the TGI in the assay on HCT-15 colon, in the assay with COLO 205 colon, with CCRF-CEM leukemia and in the assay on SNB-75 CNS was > 100 µM in each case.

For the compound `CC(=O)NC1(c2cc3ccccc3s2)CCCCCC1`, the TGI with 786-0 renal is > 100 µM; with MDA-N it was > 100 µM; in the assay with ACHN renal it was > 100 µM; in the assay with BT-549 breast it was > 100 µM; in the assay with OVCAR-3 ovarian, 62.8 µM; with A549 NSCLC, > 100 µM. Moreover, the total growth inhibition concentration (TGI) was > 100 µM in the assay on HCT-15 colon, 50 µM in the assay with COLO 205 colon, 52.6 µM with CCRF-CEM leukemia and 92.2 µM in the assay with SNB-75 CNS.

On to `COc1cc(-c2cc(=O)c3c(O)c(CC=C(C)C)c(O)cc3o2)ccc1O`, for which the TGI in the assay on MDA-N is 20.2 µM; with ACHN renal, > 50 µM; in the assay on BT-549 breast, > 50 µM; with RPMI-8226 leukemia, 36.3 µM; in the assay on OVCAR-3 ovarian it was > 50 µM; in the assay on A549 NSCLC it was > 50 µM. Further, the TGI with HCT-15 colon, in the assay on COLO 205 colon and in the assay with CCRF-CEM leukemia was > 50 µM throughout.

In the case of `O=C(Nc1ccc(-n2ccc3c(NC(=O)c4ccccc4)ncnc32)cc1)Nc1ccc(Cl)c(Cl)c1`, the GI50 is 6.25 µM in the assay on ACHN renal; 1.21 µM in the assay with RPMI-8226 leukemia; 1.35 µM in the assay with OVCAR-3 ovarian; 1.95 µM with A549 NSCLC; 1.74 µM with HCT-15 colon; 2.6 µM in the assay with COLO 205 colon. Besides, the figures for the GI50 with CCRF-CEM leukemia and in the assay on SNB-75 CNS were 0.987 µM and 1.03 µM, respectively. Further, the total growth inhibition concentration (TGI) in the assay with ACHN renal came out at 14.2 µM; with RPMI-8226 leukemia, 3.2 µM; in the assay on OVCAR-3 ovarian, 3.5 µM; with A549 NSCLC, 6.64 µM; in the assay with HCT-15 colon, 6.97 µM; in the assay with COLO 205 colon, 9.89 µM. Moreover, the total growth inhibition concentration (TGI) in the assay on CCRF-CEM leukemia came out at 2.83 µM; in the assay with SNB-75 CNS it was 5.27 µM.

For `S=C1CCSc2c(ccc3ccccc23)N1`, the TGI with 786-0 renal, in the assay with MDA-N, in the assay on ACHN renal, with BT-549 breast, in the assay on OVCAR-3 ovarian and in the assay with A549 NSCLC was > 100 µM throughout. Further, the TGI in the assay on HCT-15 colon, in the assay on COLO 205 colon, with CCRF-CEM leukemia and in the assay on SNB-75 CNS was > 100 µM in each case.

With `Cc1c(N2CCN(C)CC2)nc2ccc(Cl)cc2c1-c1ccccc1`, the TGI came out at 27.9 µM in the assay with 786-0 renal; 57.7 µM with ACHN renal; 44.9 µM with RPMI-8226 leukemia; 74.3 µM in the assay with OVCAR-3 ovarian; 36.9 µM with A549 NSCLC; 40.7 µM with HCT-15 colon. Also, the TGI in the assay with COLO 205 colon was 29.7 µM; with CCRF-CEM leukemia, 42.2 µM; with SNB-75 CNS, 36.5 µM.

Turning to `COC1C(O)C(n2ncc3c(SC)nc(SC)nc32)OC1C(O)CO` (stereo unspecified), the TGI in the assay with RPMI-8226 leukemia, with OVCAR-3 ovarian, in the assay with A549 NSCLC, in the assay with HCT-15 colon, in the assay on COLO 205 colon and in the assay with CCRF-CEM leukemia was > 100 µM each time. Further, the TGI in the assay with SNB-75 CNS is > 100 µM.

In the case of `CC(=O)Nc1ccc2c3c(cc(O)c2c1)N(C(=O)CCCCCCC(=O)N1CC(CCl)c2c1cc(O)c1cc(NC(C)=O)ccc21)CC3CCl` (stereo unspecified), the TGI with 786-0 renal is 0.0204 µM; in the assay on ACHN renal, 0.0345 µM; in the assay with BT-549 breast, 0.0914 µM; in the assay with A549 NSCLC it was > 100 µM; in the assay with HCT-15 colon it was 3.59 µM; in the assay on COLO 205 colon, 0.0161 µM. Besides, the TGI in the assay on SNB-75 CNS was < 0.01 µM.
